CCCN(CCC)S(=O)(=O)c1ccc(C(=O)O)cc1
solubility (mole fraction)
Conditions | 283.15 K | 288.15 K | 293.15 K | 298.15 K | 303.15 K | 308.15 K | 313.15 K | 318.15 K | 323.15 K
in MTBE | 0.00461 | 0.00531 | 0.00665 | 0.00801 | 0.00953 | 0.0111 | 0.0129 | 0.0156 | 0.0185
in acetone | 0.013 | 0.0148 | 0.0176 | 0.0201 | 0.0234 | 0.0268 | 0.0312 | 0.035 | 0.0409
in ethanol | 0.00506 | 0.00615 | 0.00797 | 0.00961 | 0.0117 | 0.015 | 0.0191 | 0.023 | 0.0279
in ethyl acetate | 0.00382 | 0.00459 | 0.00548 | 0.00659 | 0.00821 | 0.00992 | 0.0118 | 0.0138 | 0.0164
in isobutanol | 0.00363 | 0.00453 | 0.00573 | 0.00716 | 0.00904 | 0.0108 | 0.013 | 0.0158 | 0.0199
in isopropanol | 0.00627 | 0.00759 | 0.0089 | 0.0106 | 0.0122 | 0.015 | 0.018 | 0.021 | 0.0258
in methanol | 0.00365 | 0.00485 | 0.00609 | 0.00804 | 0.0105 | 0.0132 | 0.0166 | 0.0202 | 0.0248
in methyl acetate | 0.00449 | 0.00544 | 0.00656 | 0.00794 | 0.00945 | 0.0112 | 0.0129 | 0.0152 | 0.0179
in n-butanol | 0.00744 | 0.0089 | 0.0109 | 0.0131 | 0.0158 | 0.0186 | 0.022 | 0.026 | 0.0303
in n-butyl acetate | 0.00308 | 0.0038 | 0.00474 | 0.00562 | 0.00653 | 0.00773 | 0.00972 | 0.0118 | 0.014
in n-pentanol | 0.00879 | 0.0103 | 0.0123 | 0.0146 | 0.0171 | 0.0194 | 0.0228 | 0.0264 | 0.031
in n-propanol | 0.00544 | 0.00656 | 0.00841 | 0.0108 | 0.0135 | 0.0163 | 0.0207 | 0.0246 | 0.0289
